Data reported in PubChem BioAssay (NCI).
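Five concentrations, 48 hours, 96-well plates. GI50: concentration for 50% inhibition of growth. At the TGI there is no net growth.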

What was measured:
Test in all cases: NCI tumour cell line growth inhibition, 48 h
[1] = test system: SK-MEL-5 melanoma
[2] = test system: HCT-116 colon
[3] = test system: OVCAR-3 ovarian
[4] = test system: HCC-2998 colon
[5] = test system: A498 renal
[6] = test system: SF-295 CNS
[7] = test system: PC-3 prostate
[8] = test system: SN12C renal
[9] = test system: OVCAR-5 ovarian
[10] = test system: NCI-H226 lung

Row | SMILES | GI50 [1] [µM] | TGI [1] [µM] | GI50 [2] [µM] | TGI [2] [µM] | GI50 [3] [µM] | TGI [3] [µM] | GI50 [4] [µM] | TGI [4] [µM] | GI50 [5] [µM] | TGI [5] [µM] | GI50 [6] [µM] | TGI [6] [µM] | GI50 [7] [µM] | TGI [7] [µM] | GI50 [8] [µM] | TGI [8] [µM] | GI50 [9] [µM] | TGI [9] [µM] | GI50 [10] [µM] | TGI [10] [µM]
1 | Cc1n(Cc2ccc3ccccc3c2)c(Cl)c(Cl)[n+]1Cc1ccc2ccccc2c1 | 1.69 | 3.08 | 1.62 | 3.28 | 1.44 | 2.87 | 1.66 | 3.14 | 1.56 | 4.57 | 2.62 | 8.09 | 1.83 | 4.13 | 1.62 | 3.03 | 1.65 | 3.89 | 2.48 | 6.97
2 | O=C(O)Cn1ccnc1[N+](=O)[O-] |  | > 100 |  | > 100 |  | > 100 |  | > 100 |  | > 100 |  | > 100 |  | > 100 |  | > 100 |  | > 100 |  | > 100
3 | O=C(Nc1ccccc1O)c1ccc(CNC(=O)c2ccsc2Nc2ccnc(C(F)(F)F)c2)cc1 | 1.69 | 4.07 | 1.34 | 3.36 | 1.85 | 4.8 | 1.84 | 4.33 | 0.787 | 3.01 | 1.86 | 4.51 | 1.94 | 20.8 | 4.13 | 79.3 | 2.05 | 14.7 | 2.48 | 30.9
4 | Cn1cnc([N+](=O)[O-])c1Sc1nc(N)nc2nc[nH]c12 | 3.89 | 22.4 | 2.71 | > 100 | 4.65 | > 100 | 3.79 | > 66.3 | > 23.7 | > 100 | 0.635 | > 100 | 7.91 | > 100 | 6.7 | > 100 | 4.48 | > 100 | 7.5 | > 100
5 | COc1ccc(C2ONC3=NCCN32)cc1 (stereo not given) | 53.3 | > 100 | 40.4 | > 100 | 35.2 | > 100 | 49.7 | > 100 | > 100 | > 100 | 93.4 | > 100 | 55.4 | > 100 | 52.8 | > 100 | > 100 | > 100 | 61.4 | > 100
6 | COc1ccc(-c2cc(/C=C/C(=O)c3cc(OC)c(OC)c(OC)c3)[nH]n2)cc1OC | 1.58 | 2.93 | 0.425 | 1.79 | 1.59 | 3.15 | 1.9 | 3.4 | 1.46 | 4.99 | 1.67 | 4.26 | 1.99 | 10.3 | 1.77 | 3.83 | 1.76 | 4.31 | 1.93 | 7.91
7 | O=c1oc2ccc(F)cc2c(=O)n1-c1ccc(Br)cc1F | 0.267 | 0.737 | 0.436 | 2.69 | 0.436 | 12.9 | 2.9 | 10.8 | 0.184 | 0.72 | 1.82 | 3.63 | 1.52 | 7.42 | 0.376 | 7.6 | 3.94 | > 100 | 1.08 | 4.87
8 | O=C(Cc1ccc(/C=C/C(=O)c2ncc[nH]2)cc1)Nc1ccc(C(F)(F)F)cc1 | 5.55 | 10.2 | 0.694 | 1.74 | 1.09 | 3.35 | 3.97 | 8.61 | 4.73 | 10 | 4.08 | 9.3 | 2.81 | 12.4 | 1.87 | 8.02 | 4.89 | 10.2 | 6.11 | 13.1
9 | O=C(CCN1CCCC1)Nc1ccc2c(Nc3ccccc3)c3ccccc3nc2c1 | 1.38 | 2.71 | 0.611 | 2.2 | 1.06 | 3.27 | 0.733 | 2.29 | 0.864 | 2.22 | 0.498 | 1.91 | 0.951 | 3.01 | 0.306 | 1.81 | 1.52 | 4.4 | 1.18 | 3.53
10 | Cn1cc(CO)c2ccccc21 | 48.6 | > 100 | 26.9 | > 100 | 29.5 | > 100 | > 100 | > 100 | 17.6 | 73.1 | 34.2 | > 100 | 85 | > 100 | 50.9 | > 100 | > 100 | > 100 | 64.1 | > 100
11 | COc1ccccc1/C=C\C(=O)c1ccccc1 | 5.01 | 17 | 3.4 | 11.6 | 7.43 | 19.3 | 7.34 | 19.9 | 16.3 | 35.7 | 3.27 | 14 | 5.85 | 23 | 9.36 | 22.1 | 17.7 | 32.5 | 14.5 | 29.8
12 | O=C(O)C1C(C(=O)O)C2(Cl)C(Cl)=C(Cl)C1(Cl)C2(Cl)Cl.[Cd] (stereo not given) | 1.37 | 5.63 | 17.5 | 32.5 | 7.81 | 19.7 | 22.6 | 47.7 | > 100 | > 100 | > 100 | > 100 | 15.3 | 29.7 | 18.4 | 36.1 | 18.2 | 32.9 | 34.9 | > 66.7
13 | CN(C)C(=O)SC1=C(c2c(Cl)cccc2Cl)C(=O)c2ccccc21 | 7.16 | 19.2 | 1.75 | 3.28 | 1.96 | 3.8 | 15.6 | 29.2 | 16.1 | 31.7 | 16.6 | 33.7 | 7.95 | 22.8 | 6.18 | 17.7 | 15.5 | 30.8 | 19.9 | 59.8
